Columns and labels:
[1] = 101.33 kPa, Liquid; for viscosity: Capillary tube (Ostwald / Ubbelohde) method; for speed of sound: Sing-around technique in a fixed-path interferometer; for mass density: Vibrating tube method
[2] = refractive index (Na D-line) (dimensionless); details: 101.33 kPa, Liquid, Standard Abbe refractometry

CCCCCc1c(C)cc(C)c[n+]1CCCC.O=S(=O)([N-]S(=O)(=O)C(F)(F)F)C(F)(F)F
Details | mass density, [1] [kg/m3] | refractive index, [2] | speed of sound, [1] [m/s] | viscosity, [1] [mPa·s]
298.15 K | 1288.23 | 1.4604 | 1293 | 253
303.15 K | 1283.93 | 1.45878 | 1279 | 186
308.15 K | 1279.63 | 1.45714 | 1266 | 138
313.15 K | 1275.33 | 1.45549 | 1253 | 105
318.15 K | 1271.04 | 1.45386 | 1240 | 80.8
323.15 K | 1266.77 | 1.45226 | 1228 | 63.7
328.15 K | 1262.51 | 1.45065 | 1215 | 51
333.15 K | 1258.26 | 1.44902 | 1203 | 41.5
338.15 K | 1254.01 | 1.44744 | 1191 | 34.2
343.15 K | 1249.77 | 1.44588 | 1179 | 28.6

CCCCCC[n+]1cc(C)cc(C)c1CCCCC.O=S(=O)([N-]S(=O)(=O)C(F)(F)F)C(F)(F)F
Details | mass density, [1] [kg/m3] | refractive index, [2] | speed of sound, [1] [m/s] | viscosity, [1] [mPa·s]
298.15 K | 1253.47 | 1.46074 | 1291 | 278
303.15 K | 1249.29 | 1.4591 | 1277 | 204
308.15 K | 1245.09 | 1.45746 | 1264 | 151
313.15 K | 1240.9 | 1.45583 | 1251 | 115
318.15 K | 1236.71 | 1.45417 | 1238 | 88.5
323.15 K | 1232.53 | 1.45255 | 1225 | 69.6
328.15 K | 1228.37 | 1.45093 | 1213 | 55.7
333.15 K | 1224.22 | 1.4493 | 1201 | 45.2
338.15 K | 1220.07 | 1.44769 | 1188 | 37.1
343.15 K | 1215.94 | 1.44607 | 1176 | 30.9

Source: the NIST ThermoML archive (doi:10.1016/j.jct.2013.09.028)
